Several values for one entry are separate records, joined by “and”; a condition that tells them apart may be missing. Equal entries are not always repeated.
Legend:
[1] = tested on: MCF-7 breast carcinoma cell line; experiment: MTT cytotoxic activity against MCF-7 breast carcinoma cell line; assay type: cell-based; conditions: Homo sapiens, MCF7; MTT assay, MCF-7 cells, 24 h incubation
Protocol: Cytotoxic activity of the synthesized acrylate derivatives 5a–6i was evaluated against the MCF-7 breast carcinoma cell line using the MTT colorimetric assay. CA-4 was included as a positive control. The results were summarized as IC50 values in Table 1.
Antiproliferative activity of the constructed acrylate molecules 5a–6i was determined on MCF-7 cell line as reported previously.[38] See ESI Appendix A. ^† […]
(§1) S4.2.1. Cytotoxic activity evaluation
To measure the cytotoxic actvity of the synthesized acrylate derivatives 5a,b and 6a-i in breast cancer (MCF-7) cell line. Cell viability assay was assessed using MTT assay method. Cells at density of 1 x 104 were seeded in a 96-well plate at 37 °C for 24 h under 5% CO2. After incubation, the cells were treated with different concentrations of the test acrylate derivatives 5a-6i and incubated for 24 h, then 20 µl of MTT solution at 5 mg/mL was applied and incubated for 4 h at 37 °C. Dimethyl sulphoxide (DMSO) in volume of 100 µl was added to each well to dissolve the purple formazan that had formed. The color intensity of the formazan product, which represents the growth condition of the cells, is quantified by using an ELISA plate reader (EXL 800, USA) at 570 nm absorbance. The experimental conditions were carried out with at least three replicates, and the experiments were repeated at least three times. […]

[2] = tested on: MCF-10A; experiment: MTT cytotoxic activity against MCF-10A cells; assay type: cell-based; conditions: Homo sapiens, MTT assay
[3] = target: T1, β-tubulin (Homo sapiens, UniProt P07437); experiment: β-tubulin polymerization inhibition in MCF-7 cells (Human Beta-tubulin SimpleStep ELISA kit); assay type: cell-based; conditions: 48 h; for β-tubulin polymerization inhibition percentage: at IC50 concentration
T1 construct: utilizing MCF-7 breast carcinoma cells; endogenous in cells; host or cells: MCF-7 breast carcinoma cells
T1 sequence (P07437 whole entry): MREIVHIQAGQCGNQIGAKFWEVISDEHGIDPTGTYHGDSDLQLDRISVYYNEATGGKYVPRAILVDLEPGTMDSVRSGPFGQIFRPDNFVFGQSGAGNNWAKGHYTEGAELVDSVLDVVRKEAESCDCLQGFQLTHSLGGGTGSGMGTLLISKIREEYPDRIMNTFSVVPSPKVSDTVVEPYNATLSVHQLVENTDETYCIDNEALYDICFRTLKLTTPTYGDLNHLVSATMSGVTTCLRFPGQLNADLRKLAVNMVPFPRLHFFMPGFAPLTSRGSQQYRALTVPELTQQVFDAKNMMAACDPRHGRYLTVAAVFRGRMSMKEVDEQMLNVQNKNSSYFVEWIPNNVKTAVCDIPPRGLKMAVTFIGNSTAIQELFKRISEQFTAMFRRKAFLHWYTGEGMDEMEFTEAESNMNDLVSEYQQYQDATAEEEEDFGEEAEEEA
T1 sequence (P68363 whole entry partner): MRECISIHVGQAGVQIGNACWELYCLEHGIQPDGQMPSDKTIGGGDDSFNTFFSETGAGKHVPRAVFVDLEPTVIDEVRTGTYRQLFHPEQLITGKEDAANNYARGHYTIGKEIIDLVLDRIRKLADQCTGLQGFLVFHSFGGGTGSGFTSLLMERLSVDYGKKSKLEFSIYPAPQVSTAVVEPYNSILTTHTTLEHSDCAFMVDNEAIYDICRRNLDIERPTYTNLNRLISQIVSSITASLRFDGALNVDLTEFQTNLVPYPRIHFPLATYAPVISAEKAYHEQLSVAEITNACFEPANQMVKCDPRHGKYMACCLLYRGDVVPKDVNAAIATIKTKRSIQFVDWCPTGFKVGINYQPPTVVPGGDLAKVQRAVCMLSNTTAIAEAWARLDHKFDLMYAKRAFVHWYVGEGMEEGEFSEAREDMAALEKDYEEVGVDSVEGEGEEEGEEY
Source text: The disruption of the cellular microtubule structure and, more importantly, microtubule function that result from inhibiting β-tubulin polymerization leads to the triggering of cellular apoptosis.[30,31] Inhibition of tubulin polymerization has been identified as a possible therapeutic target for the creation of new cancer therapies.[32]
as §1
(§2) To measure the cytotoxic actvity of the synthesized acrylate derivatives 5a,b and 6a-i in breast cancer (MCF-7) cell line. Cell viability assay was assessed using MTT assay method. Cells at density of 1 x 104 were seeded in a 96-well plate at 37 °C for 24 h under 5% CO2. After incubation, the cells were treated with different concentrations […]
(§3) solution at 5 mg/mL was applied and incubated for 4 h at 37 °C. Dimethyl sulphoxide (DMSO) in volume of 100 µl was added to each well to dissolve the purple formazan that had formed. The color intensity of the formazan product, which represents the growth condition of the cells, is quantified by using an ELISA plate reader (EXL 800, USA) at 570 nm absorbance. The experimental conditions were carried out with at least three replicates, and the experiments were repeated at least three times.
(§4) S4.2.2. Tubulin polymerization Assay

[4] = tested on: MCF-7 breast carcinoma cells; experiment: Flow cytometric cell cycle analysis of MCF-7 cells; assay type: cell-based; conditions: 2.57 μM, 48 h
Protocol: The MCF-7 cell line was used for cell cycle analysis. Assay was carried out as reported previously.[39] See ESI Appendix A. ^† […]
as §1
To measure the cytotoxic actvity of the synthesized acrylate derivatives 5a,b and 6a-i in breast cancer (MCF-7) cell line. Cell viability assay was assessed using MTT assay method. Cells at density of 1 x 104 were seeded in a 96-well plate at 37 °C for 24 h under 5% CO2. After incubation, the cells were treated with different concentrations of the test acrylate derivatives 5a-6i and incubated for 24 h, then 20 µl of MTT solution at 5 mg/mL was applied and incubated for 4 h at 37 °C. Dimethyl sulphoxide (DMSO) in volume of 100 µl was added to each well to dissolve the purple formazan that had formed. The color intensity of the formazan product, which represents the growth condition of the cells, is quantified by using an ELISA plate reader (EXL 800, USA) at 570 nm absorbance. The experimental conditions were carried out with at least three replicates, and the experiments were repeated at least three times.
as §4
Compound 6e and CA-4 were evaluated for their tubulin inhibitory activity according to manufacturer’s instructions using # abcam Human Beta-tubulin simplestep ELISA […]
(§5) S4.2.3. Cell cycle analysis of compound 6e
Cell cycle analysis in MCF-7 cells was investigated using fluorescent Annexin V-FITC/ PI detection kit (BioVision EZCellTM Cell Cycle Analysis Kit Catalog #K920) by flow cytometry assay. MCF-7 cells at a density of 2 × 10^5 per well were harvested and washed twice in PBS. After that, the cells were incubated at 37 °C and 5% CO2.
The medium was incubated with the tested compound 6e at ita IC50 (µM) for 48 h, washed twice in PBS, fixed with 70% ethanol, rinsed again with PBS. Afterward, medium was stained with DNA fluorochrome PI for 15 min at 37 °C. The samples were immediately analyzed using Facs Calibur flow cytometer (Becton and Dickinson, Heidelberg, Germany).
S4.2.4. Apoptosis assay for compound 6e […]

[5] = tested on: MCF-7 breast carcinoma cells; experiment: Annexin V-FITC/PI apoptosis assay in MCF-7 cells; assay type: cell-based; conditions: 2.57 μM, 48 h
Protocol: as §1, §2, §3
S4.2.2. Tubulin polymerization Assay […]
to manufacturer’s instructions using # abcam Human Beta-tubulin simplestep ELISA […]
as §5
Cell cycle analysis in MCF-7 cells was investigated using fluorescent Annexin V-FITC/ PI detection kit (BioVision EZCellTM Cell Cycle Analysis Kit Catalog #K920) by flow cytometry assay. MCF-7 cells at a density of 2 × 10^5 per well were harvested and washed twice in PBS. […]
immediately analyzed using FACS Calibur flow cytometer (Becton and Dickinson, […]

[6] = tested on: p53; experiment: qRT-PCR gene expression of p53 in MCF-7 cells; assay type: cell-based; conditions: 2.57 μM, 48 h
Source text: (§6) p53, Bax and Bcl-2 play a key role in controlling intrinsic mitochondrial cellular death.[36] […] During the apoptotic process, these mediators have opposing effects. p53 and Bax have proapoptotic impacts, while Bcl-2 has anti-apoptotic effects. […] This assay utilized the quantitative real time reverse transcriptase PCR (qRT-PCR) assay. […] On the other hand, compound 6e decreased the level of anti-apoptotic gene Bcl-2 level by 0.38-fold less than untreated cells.
(§7) The MCF-7 cell line was used for measurement of the expression levels of Apoptotic markers. […]
(§8) S4.2.5. qRT-PCR measurements of p53, Bax and Bcl2 for compound 6e
(§9) Real-time PCR for p53, BAX and Bcl-2 genes expression was done using commercial Qiagen RNA extraction/ BioRad SYBER green PCR master mix according manufacturer's instructions. Briefly, 2 µl of cDNA template, 10 pMol of each forward and reverse primer, 10 µl of 2X Master Mix and to 20 µl total reaction mixture volume by nuclease free water and then was introduced to thermal cycler instrument (Thermo Scientific, USA). The cycling parameters for the PCR amplification were achieved by initial denaturation at 95 °C for 3 minutes followed by 40 cycles of 94 °C for 15 seconds and annealing/extension step at 60 °C for 1 min. Relative quantification of target genes was run on Rotor-Gene 6000 Series Software 1.7 (Build […]
(§10) Table 1: The primer sequences for Real Time PCR assay

[7] = tested on: Bax; experiment: qRT-PCR gene expression of Bax in MCF-7 cells; assay type: cell-based; conditions: 2.57 μM, 48 h
Source text: as §6, §7, §8, §9, §10

[8] = tested on: Bcl-2; experiment: qRT-PCR gene expression of Bcl-2 in MCF-7 cells; assay type: cell-based; conditions: 2.57 μM, 48 h
Source text: as §6, §7, §8, §9, §10

[9] = tested on: Bax/Bcl-2; experiment: Bax/Bcl-2 ratio from qRT-PCR in MCF-7 cells; assay type: cell-based; conditions: 2.57 μM, 48 h
Source text: as §6, §7, §8, §9, §10

Row | SMILES | melting point | IC50 [1] | further results
1 | CCOC(=O)/C(=C/c1ccc(OC)c(OC)c1OC)NC(=O)c1cc(OC)c(OC)c(OC)c1 [6f, (Z)-Ethyl 2-(3,4,5-trimethoxybenzamido)-3-(2,3,4-trimethoxyphenyl)acrylate] | 127 to 129 °C | 3.26 ± 0.21 µM | 
2 | COc1ccc(C(=O)N/C(=C\c2ccc(OC)c(OC)c2OC)C(=O)O)cc1OC [5a, (Z)-2-(3,4-Dimethoxybenzamido)-3-(2,3,4-trimethoxyphenyl)acrylic acid] | 201 to 203 °C | 9.31 ± 0.35 µM | 
3 | COC(=O)/C(=C/c1ccc(OC)c(OC)c1OC)NC(=O)c1cc(OC)c(OC)c(OC)c1 [6e, (Z)-Methyl 2-(3,4,5-trimethoxybenzamido)-3-(2,3,4-trimethoxyphenyl)acrylate] |  | 2.57 ± 0.16 µM | IC50 [2]: 19.1 ± 0.31 µM; fold decrease in the level of β-tubulin polymerization compared to untreated control cells ([3]; 2.57 μM): 5.73 fold; β-tubulin polymerization inhibition percentage [3]: 81.16%; cell population in G2/M phase ([4]; control 8.20%): 29.96%; cell population in S phase ([4]; control 26.88%): 22.06%; cell population in G1 phase ([4]; control 54.92%): 47.98%; late stage apoptotic cells ([5]; control 0.24%): 23.28%; early stage apoptotic cells ([5]; control 0.38%): 14.55%; p53 gene expression level, fold relative to untreated control cells [6]: 6.18 fold; Bax gene expression level, fold relative to untreated control cells [7]: 3.99 fold; Bcl-2 gene expression level, fold relative to untreated cells (decrease) [8]: 0.38 fold; increase of the ratio of Bax/Bcl-2 compared to untreated cells [9]: 10.5 fold
4 | COc1ccc(/C=C\c2cc(OC)c(OC)c(OC)c2)cc1O [CA-4, combretastatin A-4, reference compound] |  | 1.25 ± 0.08 µM | IC50 [2]: 13.2 ± 0.19 µM; β-tubulin polymerization inhibition percentage [3]: 89.17% and 82.82%
5 | COc1cc(C(=O)N/C(=C\c2ccc(OC)c(OC)c2OC)C(=O)OC(C)C)cc(OC)c1OC [6h, (Z)-Isopropyl 2-(3,4,5-trimethoxybenzamido)-3-(2,3,4-trimethoxyphenyl)acrylate] | 105 to 107 °C | 7.08 ± 0.29 µM | 
6 | CCCCOC(=O)C(=Cc1ccc(OC)c(OC)c1OC)NC(=O)c1cc(OC)c(OC)c(OC)c1 [6i, Butyl 2-(3,4,5-trimethoxybenzamido)-3-(2,3,4-trimethoxyphenyl)acrylate] | 118 to 120 °C | 33 ± 1.03 µM | 
7 | CCCOC(=O)/C(=C/c1ccc(OC)c(OC)c1OC)NC(=O)c1cc(OC)c(OC)c(OC)c1 [6g, (Z)-Propyl 2-(3,4,5-trimethoxybenzamido)-3-(2,3,4-trimethoxyphenyl)acrylate] | 111 to 113 °C | 11.3 ± 0.75 µM | 
8 | CCCCOC(=O)/C(=C/c1ccc(OC)c(OC)c1OC)NC(=O)c1ccc(OC)c(OC)c1 [6d, (Z)-Butyl 2-(3,4-dimethoxybenzamido)-3-(2,3,4-trimethoxyphenyl)acrylate] | 132 to 134 °C | 42.1 ± 0.96 µM | 

Second part, led by results:

Row | melting point | SMILES | IC50 [1] | further results
9 | 119 to 121 °C | CCCOC(=O)/C(=C/c1ccc(OC)c(OC)c1OC)NC(=O)c1ccc(OC)c(OC)c1 [6c, (Z)-Propyl 2-(3,4-dimethoxybenzamido)-3-(2,3,4-trimethoxyphenyl)acrylate] | 20.3 ± 0.44 µM | 
10 | 217 to 219 °C | COc1cc(C(=O)N/C(=C\c2ccc(OC)c(OC)c2OC)C(=O)O)cc(OC)c1OC [5b, (Z)-2-(3,4,5-Trimethoxybenzamido)-3-(2,3,4-trimethoxyphenyl)acrylic acid] | 5.12 ± 0.32 µM | 
11 | 177 to 179 °C | COC(=O)/C(=C/c1ccc(OC)c(OC)c1OC)NC(=O)c1ccc(OC)c(OC)c1 [6a, (Z)-Methyl 2-(3,4-dimethoxybenzamido)-3-(2,3,4-trimethoxyphenyl)acrylate] | 6.74 ± 0.78 µM | 
12 | 154 to 156 °C | CCOC(=O)/C(=C/c1ccc(OC)c(OC)c1OC)NC(=O)c1ccc(OC)c(OC)c1 [6b, (Z)-Ethyl 2-(3,4-dimethoxybenzamido)-3-(2,3,4-trimethoxyphenyl)acrylate] | 17.1 ± 0.49 µM | 
